Earlier results in patent US20070269478A1, “METHOD OF PREPARING ACELLULARIZED, BIOCOMPATIBLE, IMPLANTABLE MATERIAL” (priority 2006, published 2007).

Experiments:
[1] = for pK2: amino group, glutamic acid vs. γ-aminobutyric; for pK5: primary amine basicity, glycine vs. metilamine
[2] = α-amino acids with acidic side chains

Row | pK2 [1] | pH above which there is an excess of negative charge [2] | SMILES | pK5 [1]
1 | 9.76 | ~4.2 | N[C@@H](CCC(=O)O)C(=O)O [glutamic acid] | 
2 |  |  | NCC(=O)O [glycine] | 9.60
3 |  | ~2.2 | N[C@@H](CCS(=O)(=O)O)C(=O)O [homocysteic acid] | 
4 |  |  | CN [metilamine] | 10.65
5 | 10.56 |  | NCCCC(=O)O [γ-aminobutyric, 4-aminobutanoic acid] | 
